Like-named read-outs stand apart in the source and are kept apart here. Starred links: 1 amine or outer side, 2 acyl side, 3 side chain; linkers in the order of their positions; H or OH if unused. Non-standard residues stand in square brackets, D forms with d. Residues, ends and D or L forms follow the SMILES beside them. Groups on a side chain read outwards from the residue. *: point of attachment. Daunorubicin = COc1cccc2c1C(=O)c1c(O)c3c(c(O)c1C2=O)C[C@@](O)(C(C)=O)C[C@@H]3O[C@H]1C[C@H](N*)[C@H](O)[C@H](C)O1; Dabcyl = CN(C)c1ccc(N=Nc2ccc(C(=O)*)cc2)cc1; X1 = O=C(c1ccc2cc(N[*:1])ccc2c1)[*:2]; Suc = O=C(CCC(=O)[*:2])[*:1]; 4Amb = NCc1ccc(C(=O)O)cc1; 4Abz = Nc1ccc(C(=O)O)cc1
What was measured:
MDA-MB-231 [1] = assay: In vitro cytostatic activity, MTT assay; type: cell-based, human; details: 3 h incubation with compound (0.4–100 µM), then 3 days culture in serum containing medium, three independent experiments with 4 parallel measurements
Protocol: (§1) Cells were grown to confluency and were plated into 96-well plates with initial cell number of 5 × 10^3 per well. The cells were incubated at 37 °C for 24 h. Then, cells were treated with the compounds at 0.4–100 µM concentration range for 3 h in 200 µL as the final volume. Control cells were treated with serum free medium at 37 °C for 3 h. After the incubation, the cells were washed with serum free medium twice. To analyze the in vitro cytostatic effect, cells were further cultured for 72 h in serum containing medium. Then, the MTT assay was performed to measure the IC50 values. […] The cells were incubated for 4 h. Then, the plates were centrifuged at 900× g for 5 min, and the supernatant was discarded. To dissolve the formed purple crystals, 100 µL of DMSO was added, and the absorbance was determined at λ = 540 nm and 620 nm using ELISA plate reader (iEMS Reader, Labsystems, Finland). To measure the percentage of cytostasis, the following equation was used for calculation: Cytostatic effect (%) = [1 − (ODtreated/ODcontrol)] × 100; where ODtreated and ODcontrol correspond to the optical densities of the treated and untreated cells, respectively. In each case, three independent experiments were carried out with 4 parallel measurements. […] The curves were defined using MicrocalTM Origin (version 9.2) software: cytostasis was plotted as a function of concentration, fitted to a sigmoidal curve, and based on this curve, the IC50 value was determined.

MCF-7 [2] = assay: In vitro cytostatic activity, MTT assay; type: cell-based, human; details: 3 h incubation with compound (0.4–100 µM), then 3 days culture in serum containing medium, three independent experiments with 4 parallel measurements
Protocol: as §1

MDA-MB-231 cells [3] = assay: Cellular uptake of fluorescently labelled peptides by flow cytometry; type: cell-based, human; details: 90 min, flow cytometry after trypsin treatment
Protocol: Cellular uptake of peptides was measured using flow cytometry on MCF-7 and MDA-MB-231 cells. Cells were treated with the fluorescently labelled peptides at 1, 5 and 10 µM concentrations for 90 min at 37 °C.
To study the cellular uptake of fluorophore-labelled peptides, 10^5 cells per well were plated on 24-well plates. Cells were incubated for 24 h at 37 °C, followed by treatment with the peptides at different concentrations, in serum-free medium for different time intervals. For negative control, cells were treated with serum-free medium. After the incubation, the peptide solutions were removed and 100 µL trypsin (0.25%) was added for 5–10 min to remove membrane bound peptides and detach the adherent cells from the plates. […] The fluorescence intensity of cells was quantified by flow cytometer (BD LSR II, BD Bioscience, San Jose, CA, USA). Data were analyzed with FACSDiVa 5.0 software.
Cells were treated with 1, 5 and 10 µM peptide solution for 90 min. The fluorescence intensity of the cells was determined by flow cytometry after trypsin treatment. […]
Cells were treated with 1, 5 and 10 µM peptide solutions for 90 min. The fluorescence intensity of the cells was determined by flow cytometry after trypsin treatment.

MDA-MB-231 cells [4] = assay: Effect of ATP depletion (NaN3 and DOG) on cellular uptake (flow cytometry); type: cell-based, human; details: NaN3 10 mM and DOG 5 mM pretreatment 30 min, then peptide conjugate 5 µM, 90 min, 37 °C
Protocol: In order to inhibit all pathways of endocytosis, MDA-MB-231 cells were pretreated with sodium azide (NaN3) (10 mM) and 2-Deoxyglucose (DOG) (5 mM) for 30 min and the peptide was added to the wells. The cells were then incubated for 90 min at 37 °C.
Figure 9 Effect of endocytosis inhibitors on the cellular uptake of peptide conjugates. MDA-MB-231 cells were pretreated with NaN3 (10 mM) and DOG (5 mM) for 30 min, the cells were then treated with the peptide conjugates (5 µM) for 90 min. Significant difference from control was measured using Student’s t test (* p < 0.05 and ** p < 0.01).

MDA-MB-231 cells [5] = assay: Effect of endocytosis inhibitors on cellular uptake (flow cytometry); type: cell-based, human; details: then Cf-labelled peptide conjugate 5 µM, 90 min, 37 °C; for Effect of EIPA on uptake: EIPA 50 µM pretreatment 30 min; for Effect of CPZ on uptake: chlorpromazine (CPZ) 30 µM pretreatment 30 min; for Effect of COL on uptake: colchicine (COL) 20 µM pretreatment 30 min
Description: Several endocytic routes can be used by CPPs for entry, which then determine their intracellular fate. […] The following inhibitors were applied: 5-(N-ethyl-N-isopropyl)amiloride (EIPA) as […] [39], chlorpromazine (CPZ) to inhibit clathrin-mediated endocytosis, methyl-beta-cyclodextrin (CyD) to deplete cholesterol from the lipid rafts, and thus to inhibit caveolae-mediated endocytosis. Finally, colchicine (COL) was used to ascertain if microtubules are involved in the uptake of the peptides as this agent inhibits microtubule formation.
The effect of inhibitors was studied in the same manner but with pretreatment by an inhibitor for 30 min, and subsequently treated with a peptide conjugate at 5 µM. The cells were then incubated for 90 min at 37 °C. Macropinocytosis was inhibited using 5-(N-Ethyl-N-isopropyl)amiloride (EIPA), clathrin-mediated endocytosis with chlorpromazine (CPZ), colchicine (Col) to assess the role of microtubules, and methyl-β-cyclodextrin (CyD) for the inhibition of caveolae/lipid-raft-mediated endocytosis.
Figure 8 Effect of endocytosis inhibitors on the cellular uptake of peptide conjugates. MDA-MB-231 cells were pretreated with inhibitors EIPA (50 µM), CPZ (30 µM), CyD (5 mM) and COL (20 µM) for 30 min, the cells were then treated with the peptide conjugates (5 µM) for 90 min. Significant difference from control was measured using student’s t test (* p <0.05, ** p < 0.01and **** p< 0.0001).

MDA-MB-231 [6] = details: 3 h incubation, 3 days culture, MTT assay; cited from earlier work
Description: Table 3 Cytostatic activity of peptide/drug conjugates on MCF-7 and MDA-MB-231. | column: IC50 ±SD (µM) ^a / MDA-MB-231

MCF-7 [7] = details: 3 h incubation, 3 days culture, MTT assay; cited from earlier work
Description: Table 3 Cytostatic activity of peptide/drug conjugates on MCF-7 and MDA-MB-231. | column: IC50 ±SD (µM) ^a / MCF-7

Compound: COc1cccc2c1C(=O)c1c(O)c3c(c(O)c1C2=O)C[C@@](O)(C(C)=O)C[C@@H]3O[C@H]1C[C@H](NC(=O)CCC(=O)NCCCC[C@H](NC(=O)[C@H](CCCNC(=N)N)NC(=O)[C@H](CCCNC(=N)N)NC(=O)[C@H](CCCNC(=N)N)NC(=O)[C@H](CCCNC(=N)N)NC(=O)c2ccc3cc(NC(=O)c4ccc(N=Nc5ccc(N(C)C)cc5)cc4)ccc3c2)C(N)=O)[C@H](O)[C@H](C)O1 [Dabcyl-NAPH- Arg-Arg-Arg-Arg-Lys(DauSuc)] (Dabcyl-[X1]RRRRK([Suc-Daunorubicin])-NH2)
- IC50 (MDA-MB-231 [1]): 16.6 ± 0.5 µM
- IC50 (MCF-7 [2]): 15 ± 4.2 µM

Compound: Dabcyl-PABA-RRRRK
- Uptake relative to Arg8 (MDA-MB-231 cells [3]; CY5-labelled peptide, at all concentrations (1, 5 and 10 µM)): 3 to 4.5 folds
- Relative uptake intensity (MDA-MB-231 cells [3]; Cf-labelled peptide, 10 µM, 37 °C, fluorescence intensity relative to Dabcyl-RRWRRK(Cf) at 10 µM (100%)): 340%
- Uptake after pretreatment with NaN3 and DOG (MDA-MB-231 cells [4]): significantly lower
- Effect of EIPA on uptake (MDA-MB-231 cells [5]): did not alter the internalization
- Effect of CPZ on uptake (MDA-MB-231 cells [5]): did not cause any inhibition
- Effect of COL on uptake (MDA-MB-231 cells [5]): did not cause any inhibition

Compound: COc1cccc2c1C(=O)c1c(O)c3c(c(O)c1C2=O)C[C@@](O)(C(C)=O)C[C@@H]3O[C@H]1C[C@H](NC(=O)CCC(=O)NCCCC[C@H](NC(=O)[C@H](CCCNC(=N)N)NC(=O)[C@H](CCCNC(=N)N)NC(=O)[C@H](CCCNC(=N)N)NC(=O)[C@H](CCCNC(=N)N)NC(=O)c2ccc(NC(=O)c3ccc(N=Nc4ccc(N(C)C)cc4)cc3)cc2)C(N)=O)[C@H](O)[C@H](C)O1 [Dabcyl-PABA- Arg-Arg-Arg-Arg-Lys(DauSuc)] ({Dabcyl-4Abz}-RRRRK([Suc-Daunorubicin])-NH2)
- IC50 (MDA-MB-231 [1]): 14.3 ± 1.1 µM
- IC50 (MCF-7 [2]): 17.7 ± 1.2 µM

Compound: Dabcyl-AMBA-RRRRK
- Uptake after pretreatment with NaN3 and DOG (MDA-MB-231 cells [4]): significantly lower
- Effect of EIPA on uptake (MDA-MB-231 cells [5]): decreased the uptake
- Effect of CPZ on uptake (MDA-MB-231 cells [5]): did not cause any inhibition
- Effect of COL on uptake (MDA-MB-231 cells [5]): did not cause any inhibition

Compound: Dabcyl-Trp-Arg-Arg-Arg-Arg-Lys(MTX)
- IC50 (MDA-MB-231 [6]): 7.4 ± 2.2 µM
- IC50 (MCF-7 [7]): 36.9 ± 3 µM

Compound: Dabcyl-Trp-Arg-Arg-Arg-Arg-Lys(DauSuc)
- IC50 (MDA-MB-231 [6]): 18 ± 6.7 µM
- IC50 (MCF-7 [7]): 26.4 ± 4.2 µM

Compound: CN(Cc1cnc2nc(N)nc(N)c2n1)c1ccc(C(=O)N[C@@H](CCC(=O)O)C(=O)O)cc1 [MTX, methotrexate]
- IC50 (MDA-MB-231 [6]): > 100 µM
- IC50 (MCF-7 [7]): 0.8 ± 0.3 µM

Compound: Succinylated daunomycin [DauSuc]
- IC50 (MDA-MB-231 [6]): > 100 µM
- IC50 (MCF-7 [7]): 24.5 ± 7.1 µM

Compound: COc1cccc2c1C(=O)c1c(O)c3c(c(O)c1C2=O)C[C@@](O)(C(C)=O)C[C@@H]3O[C@H]1C[C@H](NC(=O)CCC(=O)NCCCC[C@H](NC(=O)[C@H](CCCNC(=N)N)NC(=O)[C@H](CCCNC(=N)N)NC(=O)[C@H](CCCNC(=N)N)NC(=O)[C@H](CCCNC(=N)N)NC(=O)c2ccc(CNC(=O)c3ccc(N=Nc4ccc(N(C)C)cc4)cc3)cc2)C(N)=O)[C@H](O)[C@H](C)O1 [Dabcyl-AMBA-Arg-Arg-Arg-Arg-Lys(DauSuc)] ({Dabcyl-4Amb}-RRRRK([Suc-Daunorubicin])-NH2)
- IC50 (MDA-MB-231 [1]): 10.1 ± 6 µM
- IC50 (MCF-7 [2]): 10.3 ± 5 µM
